In patent US10457637B2, “Benzenesulfonamide derivatives as inverse agonists of retinoid-related orphan receptor gamma (RORγ(T))” (GALDERMA RESEARCH & DEVELOPMENT, priority 2014, dated 2019):

Tests used:
Format in all cases: cell-based
[1] = system: IL-17A secretion by CD4+ cells; test: IL-17A secretion by CD4+ cells (HTRF); conditions: 96 h; human CD4+ cells activated with anti-CD3 and anti-CD28, 4 days of incubation; read-out: IC50 hCD4/IL17
Method: This model allows measurement of the effect of inhibitors on IL-17A secretion by CD4+ cells. […] The amount of IL-17a secreted is measured by the TR-FRET (kit HTRF® Human Interleukin 17A (Cisbio, #64H17PEC)) technology.
The cells are rapidly thawed, resuspended in their culture medium (RPMI inactivated 10% FCS) supplemented with soluble anti-CD28 antibodies and seeded (100 000 cells/well) in 96-well plates precoated with anti-CD3 antibodies. The cells are then treated with the ranges of inhibitors to be tested (from 1000 nM to 0.05 nM, 0.1% DMSO). […] The IC50 values are calculated from a 4-parameter logistic model using the XLFit software (IDBS).

hERG = hERG (Homo sapiens (Human), UniProt Q12809); test: hERG test, patch clamp on CHO-K1 cells; conditions: CHO-K1 cells transfected with the hERG gene
Text: In the table below, the median inhibitory concentrations IC50 for the compounds belonging to formula (I) according to the invention have been given in accordance with the hERG test.
The hERG test makes it possible to study a gene which codes for a protein required for the functioning of heart tissue potassium channels. The patch clamp method on CHO-K1 cells (cells transfected with the hERG gene which has K+ ion activity on the membranes) is used for in vitro prediction of the blocking of hERG (human Ether-a-go-go Related).
The extracellular solution (control) is applied first. The cells (Chinese hamster ovarian cells expressing the Human Ether-a-go-go Related Gene) are stabilized with the extracellular solution for 5 minutes. The cells are incubated for 5 minutes with the molecules from the weakest to the strongest concentration at 0.6% DMSO final.
The result is expressed in the form of an IC50 value in μM.

[2] = molecular target: ROR gamma ligand-binding domain (hRORg) (Homo sapiens (Human), UniProt P51449); test: GAL4-RORγ transactivation (luciferase reporter, HG5LN HeLa line); conditions: 18 hours incubation
Procedure, shortened: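 HeLa-derived HG5LN cells stably expressing GAL4 DBD fused to human RORγ LBD with GAL4-driven luciferase reporter; inhibition of constitutive activity lowers luminescence.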

Chain of ROR gamma ligand-binding domain (hRORg) (P51449 269-508): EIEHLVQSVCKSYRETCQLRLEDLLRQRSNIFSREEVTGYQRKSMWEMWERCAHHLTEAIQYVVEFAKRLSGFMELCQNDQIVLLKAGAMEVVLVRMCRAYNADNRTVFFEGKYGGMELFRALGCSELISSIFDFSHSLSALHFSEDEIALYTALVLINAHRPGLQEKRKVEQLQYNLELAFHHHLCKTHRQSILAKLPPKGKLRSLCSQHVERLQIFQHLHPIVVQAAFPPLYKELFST
Chain of hERG (Q12809 whole entry): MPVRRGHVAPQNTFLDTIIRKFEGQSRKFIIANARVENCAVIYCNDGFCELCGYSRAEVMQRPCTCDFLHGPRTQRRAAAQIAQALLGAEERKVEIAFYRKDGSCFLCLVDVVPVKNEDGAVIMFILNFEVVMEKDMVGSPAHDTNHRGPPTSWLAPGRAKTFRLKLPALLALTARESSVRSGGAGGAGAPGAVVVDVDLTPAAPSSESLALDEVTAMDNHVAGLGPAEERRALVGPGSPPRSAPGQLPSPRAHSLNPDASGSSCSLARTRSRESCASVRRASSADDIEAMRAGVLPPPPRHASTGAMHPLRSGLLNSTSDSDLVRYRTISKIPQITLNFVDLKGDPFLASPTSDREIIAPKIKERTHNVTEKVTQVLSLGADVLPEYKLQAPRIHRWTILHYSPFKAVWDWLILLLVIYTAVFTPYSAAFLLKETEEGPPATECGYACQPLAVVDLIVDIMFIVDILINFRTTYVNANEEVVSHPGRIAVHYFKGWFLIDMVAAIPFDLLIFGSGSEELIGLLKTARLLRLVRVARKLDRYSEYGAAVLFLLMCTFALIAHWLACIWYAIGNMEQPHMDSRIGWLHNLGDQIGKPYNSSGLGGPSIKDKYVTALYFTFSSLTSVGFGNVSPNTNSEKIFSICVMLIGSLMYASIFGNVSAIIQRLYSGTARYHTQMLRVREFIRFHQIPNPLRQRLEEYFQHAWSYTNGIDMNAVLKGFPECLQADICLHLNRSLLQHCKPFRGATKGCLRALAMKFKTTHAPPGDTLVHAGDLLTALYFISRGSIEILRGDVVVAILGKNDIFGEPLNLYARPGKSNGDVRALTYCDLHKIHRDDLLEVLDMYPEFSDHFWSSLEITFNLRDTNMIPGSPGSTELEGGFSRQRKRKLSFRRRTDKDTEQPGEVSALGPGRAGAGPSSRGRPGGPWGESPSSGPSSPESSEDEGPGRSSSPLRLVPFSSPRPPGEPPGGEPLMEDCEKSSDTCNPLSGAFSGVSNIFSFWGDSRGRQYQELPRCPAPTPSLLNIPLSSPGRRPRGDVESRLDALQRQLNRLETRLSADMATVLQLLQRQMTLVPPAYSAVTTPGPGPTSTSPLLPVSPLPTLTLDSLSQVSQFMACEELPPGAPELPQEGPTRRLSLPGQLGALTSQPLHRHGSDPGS

SMILES	IC50 [1]	IC50 [2]	IC50 (hERG)	IC50 at 5 min (hERG; human)
CCc1ccc(N(CC(C)C)S(=O)(=O)c2ccc(OCC3CCOCC3)c(S(C)(=N)=O)c2)cc1 (racemic) [compound 26, N-(4-ethylphenyl)-N-isobutyl-3-methanesulfonoximino-4-(tetrahydropyran-4-ylmethoxy)benzenesulfonamide]	< 100 nM	–	> 30000 nM	–
CCc1ccc(N(CC(C)C)S(=O)(=O)c2ccc(OCC3CCOCC3)c([S@@](C)(=N)=O)c2)cc1 (single isomer, unassigned) [compound 8, N-(4-ethylphenyl)-N-isobutyl-3-methanesulfoximino-4-(tetrahydropyran-4-ylmethoxy)benzenesulfonamide]	< 100 nM	–	> 30000 nM	–
CCc1ccc(N(CC(C)C)S(=O)(=O)c2ccc(OCC3CCOCC3)c([S@](C)(=N)=O)c2)cc1 [compound 7, N-(4-ethylphenyl)-N-isobutyl-3-methanesulfoximino-4-(tetrahydropyran-4-ylmethoxy)benzenesulfonamide]	< 100 nM	–	> 30000 nM	–
CCc1ccc(N(CC(C)C)S(=O)(=O)c2ccc(OC[C@H]3[C@@H]4COC[C@@H]43)c(S(C)(=N)=O)c2)cc1 (stereo partly drawn) [compound 35, 4-(((1R,5S,6R)-3-oxabicyclo[3.1.0]hexan-6-yl)methoxy)-N-(4-ethylphenyl)-N-isobutyl-3-(S-methylsulfonimidoyl)benzenesulfonamide]	–	< 100 nM	> 30000 nM	–
CCc1ccc(N(CC(C)C)S(=O)(=O)c2ccc(OCC3CCSCC3)c(S(C)(=N)=O)c2)cc1 (centres unmarked) [compound 37]	–	–	–	11800 nM
CCc1ccc(N(CC(C)C)S(=O)(=O)c2ccc(N(C)CC3CCOCC3)c(S(C)(=N)=O)c2)cc1 (centres unmarked) [compound 53, N-(4-ethylphenyl)-N-isobutyl-4-(methyl((tetrahydro-2H-pyran-4-yl)methyl)amino)-3-(S-methylsulfonimidoyl)benzenesulfonamide]	< 100 nM	–	11800 nM	–
CCc1ccc(N(CC(C)C)S(=O)(=O)c2ccc(NCC3(C)CCOCC3)c(S(C)(=N)=O)c2)cc1 (centres unmarked) [compound 55, N-(4-ethylphenyl)-N-isobutyl-3-(S-methylsulfonimidoyl)-4-(((4-methyltetrahydro-2H-pyran-4-yl)methyl)amino)benzenesulfonamide]	< 100 nM	–	14100 nM	–
CCc1ccc(N(CC(C)C)S(=O)(=O)c2ccc(NCC3(F)CCOCC3)c(S(C)(=N)=O)c2)cc1 (centres unmarked) [compound 62, N-(4-ethylphenyl)-4-(((4-fluorotetrahydro-2H-pyran-4-yl)methyl)amino)-N-isobutyl-3-(S-methylsulfonimidoyl)benzenesulfonamide]	< 100 nM	–	16400 nM	–
CCc1ccc(N(CC(C)C)S(=O)(=O)c2ccc(NCC3(OC)CCOCC3)c(S(C)(=N)=O)c2)cc1 (centres unmarked) [compound 125, N-(4-ethylphenyl)-N-isobutyl-4-(((4-methoxytetrahydro-2H-pyran-4-yl)methyl)amino)-3-(S-methylsulfonimidoyl)benzenesulfonamide]	> 1000 nM	100 to 1000 nM	–	–
CCc1ccc(N(CC(C)C)S(=O)(=O)c2ccc(NCc3ccncn3)c(S(C)(=N)=O)c2)cc1 (centres unmarked) [compound 133, N-(4-ethylphenyl)-N-isobutyl-3-(S-methylsulfonimidoyl)-4-((pyrimidin-4-ylmethyl)amino)benzenesulfonamide]	< 100 nM	< 100 nM	–	–
Cc1ccc(N(CC(C)C)S(=O)(=O)c2ccc(OCC3CCOCC3)c(S(C)(=N)=O)c2)c(C)c1 (centres unmarked) [compound 142, N-(2,4-dimethylphenyl)-N-isobutyl-3-(S-methylsulfonimidoyl)-4-((tetrahydro-2H-pyran-4-yl)methoxy)benzenesulfonamide]	< 100 nM	< 100 nM	–	–

Second part, led by results:

IC50 [1]	IC50 [2]	SMILES	IC50 (hERG)	IC50 at 5 min (hERG; human)
< 100 nM	< 100 nM	CCc1ccc(N(CC(C)C)S(=O)(=O)c2ccc(NCC3CC(O)C3)c(S(C)(=N)=O)c2)cc1 (centres unmarked) [compound 61, N-(4-ethylphenyl)-4-(((3-hydroxycyclobutyl)methyl)amino)-N-isobutyl-3-(S-methylsulfonimidoyl)benzenesulfonamide]	25700 nM	–
> 1000 nM	> 1000 nM	CCc1ccc(N(CC(C)C)S(=O)(=O)c2ccc(N3CCC(O)CC3)c(S(C)(=N)=O)c2)cc1 (centres unmarked) [compound 128, N-(4-ethylphenyl)-4-(4-hydroxypiperidin-1-yl)-N-isobutyl-3-(S-methylsulfonimidoyl)benzenesulfonamide]	–	–
> 1000 nM	> 1000 nM	CCc1ccc(N(CC(C)C)S(=O)(=O)c2ccc(N3CC[C@H](O)C3)c(S(C)(=N)=O)c2)cc1 (stereo partly drawn) [compound 129, N-(4-ethylphenyl)-4-((S)-3-hydroxypyrrolidin-1-yl)-N-isobutyl-3-(S-methylsulfonimidoyl)benzenesulfonamide]	–	–
> 1000 nM	> 1000 nM	CCc1ccc(N(CC(C)C)S(=O)(=O)c2ccc(N3CC[C@@H](O)C3)c(S(C)(=N)=O)c2)cc1 (stereo partly drawn) [compound 130, N-(4-ethylphenyl)-4-((R)-3-hydroxypyrrolidin-1-yl)-N-isobutyl-3-(S-methylsulfonimidoyl)benzenesulfonamide]	–	–
> 1000 nM	> 1000 nM	CCc1ccc(N(CC(C)C)S(=O)(=O)c2ccc(N3CC(O)C3)c(S(C)(=N)=O)c2)cc1 (centres unmarked) [compound 131, N-(4-ethylphenyl)-4-(3-hydroxyazetidin-1-yl)-N-isobutyl-3-(S-methylsulfonimidoyl)benzenesulfonamide]	–	–
